Data on two compounds can be found in US20250368639A1, “SOLID FORMS OF A COMPOUND FOR TREATING OR PREVENTING HYPERURICEMIA OR GOUT” (ATOM THERAPEUTICS CO., LTD, priority 2022, published 2025).

The structures appear in SMILES notation. Values after ≈ are worked out from the molar mass of the structure shown. Read-outs that look alike come from different tables or passages of the source.

One data set addresses T1, URAT1 (Homo sapiens, UniProt Q96S37).
T1 sequence (Q96S37 1-553): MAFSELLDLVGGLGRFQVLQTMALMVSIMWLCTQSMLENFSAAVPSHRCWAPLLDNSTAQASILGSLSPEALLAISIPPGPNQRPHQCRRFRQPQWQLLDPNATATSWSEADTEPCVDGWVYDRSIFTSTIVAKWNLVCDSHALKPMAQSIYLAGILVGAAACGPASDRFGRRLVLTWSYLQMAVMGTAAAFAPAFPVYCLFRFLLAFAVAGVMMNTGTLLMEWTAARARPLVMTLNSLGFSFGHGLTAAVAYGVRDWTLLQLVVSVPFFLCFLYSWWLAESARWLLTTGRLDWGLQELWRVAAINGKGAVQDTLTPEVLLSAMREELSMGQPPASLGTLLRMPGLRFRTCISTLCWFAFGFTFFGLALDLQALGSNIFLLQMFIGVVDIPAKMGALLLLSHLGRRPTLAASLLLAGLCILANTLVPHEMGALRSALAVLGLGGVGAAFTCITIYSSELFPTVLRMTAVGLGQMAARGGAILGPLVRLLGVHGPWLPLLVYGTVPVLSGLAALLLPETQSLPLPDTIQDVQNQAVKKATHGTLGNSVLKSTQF
The data set is described as follows: Inhibitory effect on URAT1. The following applies: in comparison with other treatments.

Data set [1] is described as follows: Uric acid excretion in mice. Format: in vivo. The following applies: in comparison with other treatments.
Another data set deals with normal liver cells. In words: Toxicity to normal liver cells. The format is cell-based. The following applies: in comparison with other treatments.
For data set [2] the following is noted: rat, in vivo.
A short description of data set [3]: Dynamic vapor sorption/desorption (DVS). Format: physicochemical. The following applies: 25° C., 85% RH. The protocol:
Moisture sorption/desorption data were collected on a SMS DVS intrinsic Vapor Sorption Analyzer under a nitrogen purge. The DVS experiment generally includes a moisture sorption step and a moisture desorption step. […] In other words, the sample is considered to have reached an equilibrium between moisture sorption and desorption under the relative humidity when dm/dt≤0.01%. The sample was maintained at the temperature of 25° C. with relative humidity varied from 0% to 95%, and back to 0% at an increment of 5% RH each step.

Data set [4] can be described thus: Solubility in water, buffers and bio-relevant media (37° C., 24 h shaking, HPLC). The settings on record: for Solubility: 37° C., 24 h. The format is physicochemical. The protocol: The solubility of Form 1, Form 2, Form 5D, Form 6, Form 8, and Form 11 was analyzed in water, 0.1NaqueousHCl, pH4.5 acetate buffer solution, pH6.8 phosphate buffer solution, simulated gastric fluid (SGF), Fasted State Simulated Intestinal Fluid (FaSSIF), and Fed State Simulated Intestinal Fluid (FeSSIF).
About 5 mg or 10 mg of sample was weighed out into each vial and mixed with about 5 ml of medium to form a solution. The target concentration for the potassium salt in water was 2 mg/ml; and the target concentration for all other forms were 1 mg/mL. All samples were kept shaking at 200 rounds per minute (rpm) under 37° C. for 24 hours. The pH value of these samples were determined after shaking for 24 hours. Subsequently, they were centrifuged at the speed of 12000 rpm for 2 mins. The supernatant was diluted with methanol as necessary, and the concentrations were determined by HPLC. When the solubility of potassium salt was tested in water, the supernatant was diluted 100 times, while no other samples were diluted. The HPLC analysis utilizes Agilent Eclipse XDB-C8 4.6*150 mm, 5 μm column at 40° C., a mobile phase of 0.1% TFA: ACN=70:30, an injection volume of 10 μl, a flow rate of 1.0 ml/min, a diluent of methanol, and a detection wavelength of 234 nm.

Data set [5] is described as follows: Slurry stability in purified water (XRPD). The settings on record: stirred overnight at room temperature. Format: physicochemical. The procedure:
About 30 mg of Form land Form 5D, Form 6, and Form 8 were mixed with about 2.5 ml of purified water, and the mixtures were stirred for overnight at room temperature. The wet solids were isolated by centrifugation, and further dried in vacuum for 2.5 hours before being analyzed with XRPD.

Data set [6] is described as follows: Suspensions for animal formulation in 0.5% CMC-Na (XRPD). The format is physicochemical. The following applies: about 30 mg in 30 ml, sonication. The protocol: About 30 mg of Form 1, Form 2, and Form 5D were each added into a respective 40 ml glass bottle and mixed with 30 ml of 0.5% CMC-Na solution. The solids were dispersed uniformly in the solution with the aid of sonication. After that, the solids were isolated by centrifugation, dried at room temperature, and the dry solid analyzed with XRPD.

Data set [7] can be described thus: Single-dose pharmacokinetic study, oral and intravenous, in SD rats.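 On AUClast: AUClast in h·ng/mL.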 The format is in vivo, SD rat. The settings on record: for AUC(0-inf): read-out: AUCINF—pred; for half-life: read-out: HL_Lambda_z (T1/2) (converted); for Vd/F: read-out: Vz—F—pred. The protocol:
Form 1, Form 2, and Form 5D were each evaluated via a single-dose pharmacokinetic study following oral and intravenous administration in SD rats. […] Form 1, Form 2, and Form 5Dwere evaluated by rat pharmacokinetics study.
Male SD rat was purchased from Shanghai Sippr B&K Laboratory Animals Co., Ltd. The weight was 180 g˜200 g.
20% HP-β-CD was prepared from dissolving20 g of HP-β-CD (from Sigma) in 100 mL purified water. 0.5% CMC-Na was prepared from dissolving 1 g of CMC-Na (from Aladdin) in 200 mL purified water. The solutions were stored at 2-8 degree.
Group 1:4.95 mg (equivalent to 4.50 mg of anhydrous free base) of Form 1 was weighed out into a 20 ml bottle, and totally dissolved by 0.225 mL DMSO by sonication. After that, 4.275 mL of 20% HP-β-CD was added, mixed well by sonication. Finally, the pH value was adjusted to 7.0 by sodium hydroxide solution. The clear solution was obtained, and the concentration was 1 mg/mL.
Group 2:10.08 mg (equivalent to 9.164 mg of anhydrous free base) of Form 1 was weighed out into a 20 ml bottle, and then 9.164 mL of 0.5% CMC-Na was added. A white suspension was formed after sonicated by ultrasonic cell disruptor, and the concentration was 1 mg/mL.
Group 3:9.47 mg of Form 2 was weighed out into a 20 ml bottle, and then 9.470 mL of 0.5% CMC-Na was added. After sonicated, it was mixed well by homogenizer for 2 minutes. Finally, a white suspension was formed, and the concentration was 1 mg/mL.
Group 4:9.80 mg (equivalent to 8.909 mg of free base) of Form 5Dwas weighed out into a 20 mL bottle, and then 8.909 mL of 0.5% CMC-Na was added. After sonicated, it was mixed well by homogenizer for 2 minutes. Finally, a white suspension was formed, and the concentration was 1 mg/mL.
Group 5:1.94 mg (equivalent to 1.763 mg of anhydrous free base) of Form 1 was weighed out into a 20 ml bottle, and totally dissolved by 0.088 mL DMSO by sonication. After that, 1.675 mL of 20% HP-β-CD was added, mixed well by sonication. Finally, the pH value was adjusted to 7.0 by sodium hydroxide solution. The clear solution was obtained, and the concentration was 0.2 mg/mL.
The dose of intravenous administration was 1 mg/kg and 5 mg/kg, respectively. The oral dose was 10 mg/kg. Animals were fasted overnight before drug administration. After the drug administration, the rats were fed at the 4 hours.
About 150˜200 μL of blood was collected at the initial time (only intravenous), and at 0.25, 0.5, 1, 2, 4, 6, 8 and 24 h by jugular venipuncture blooding method. EDTA-K2 was selected as anticoagulant. Blood samples were centrifuged within one hour at 6000 rpm for 8 minutes (placed on wet ice before centrifugation). The supernatant was stored at −20° C. for LC-MS/MS analysis.
The computer program Microsoft Office Excel 2007 (Microsoft, USA) was used to process data and graphics. The pharmacokinetic parameters were calculated by WinNolin 6.4 software.

Where [8] appears, read: male SD rats, oral 10 mg/kg, Average (Table 11).
Where [9] appears, read: male, SD, rat, plasma, po, 10 mg/kg, male SD rats, oral 10 mg/kg, Average (Table 11).
[10] abbreviates: male, SD, rat, plasma, po, 10 mg/kg, male SD rats, oral 10 mg/kg, individual rats 401/402/403 (c1/c2/c3).

In the case of `CCc1nc2ccccn2c1C(=O)c1cc(Br)c(O)c(C#N)c1` [Compound I, 3-bromo-5-[(2-ethylimidazo[1,2-a]pyridin-3-yl)carbonyl]-2-hydroxybenzonitrile], the “Inhibitory effect on URAT1” value on URAT1 is given as “significantly improve the inhibitory effect on URAT1”. In addition, the Uric acid excretion entry in [1] is on record as “significantly increase uric acid excretion in mice”. Besides, the “Toxicity to normal liver cells” value in the data set on normal liver cells is on record as “reduce the toxicity to normal liver cells”. The “Toxicity (oral maximum tolerated dose, acute toxicity test)” value in data set [2] is “much lower than other treatments”.
Turning to `CCc1nc2ccccn2c1C(=O)c1cc(Br)c(O)c(C#N)c1` [Form 5D, 3-bromo-5-[(2-ethylimidazo[1,2-a]pyridin-3-yl)carbonyl]-2-hydroxybenzonitrile], the “DVS (85% RH)” value in [3] was 2.14%. The Solubility in data set [4] (0.1N HCl) came out at 8.3 µg/mL (≈ 22.4 µM). Besides, in [4] (FaSSIF), the Solubility turned out to be 55.8 µg/mL (≈ 151 µM). For the same compound, the Solubility in data set [4] (FeSSIF) was found to be 5.4 µg/mL (≈ 14.6 µM). The compound also yielded a Solubility in data set [4] (SGF) of 7.4 µg/mL (≈ 20 µM). Moreover, in [4] (Water), the Solubility is 0.8 µg/mL (≈ 2.16 µM). In data set [4] (pH 4.5 acetate buffer), this compound returned a Solubility of 1.3 µg/mL (≈ 3.51 µM). In data set [4] (pH 6.8 phosphate buffer), this compound gave a Solubility of 47.7 µg/mL (≈ 129 µM). Also, the “Appearance / solubility in water” value in data set [4] (water, shaken about 24 hours, compared with Form 1) is given as “reduced solubility in water”. In data set [5], the “Crystal form after slurry in purified water (XRPD)” value is given as “transformed into Form 1”. Further, in data set [6], the “Crystal form after dispersion in 0.5% CMC-Na solution (XRPD)” value was “did not change”. The “Exposure and bioavailability (words, comparison)” value in data set [7] (SD rats, oral administration 10 mg/kg, 10 mg/kg) is “approximately the same as results from third parties”. In [7] (setting [8]), the AUClast turned out to be 91914.8 ng·h/mL and the “Cl—F—pred” value stood at 1.83 mL/min/kg. Besides, the F in data set [7] (male SD rats, oral 10 mg/kg, calculated by intravenous administration of 1 mg/kg, Average (Table 11)) was 52.96%. In data set [7] (setting [9]), the Cmax is 8980 ng/mL, the mean residence time (MRT last) was found to be 5.95 h, the Tmax turned out to be 3.33 h and the AUC(0-inf) was found to be 92700 ng·h/mL. Moreover, in data set [7] (setting [9]), the half-life is 3.4 h and the Vd/F worked out at 0.53 L/kg. In [7] (setting [10]), the area under the curve AUC(0-t) stood at 84700 ng·h/mL, the Cmax was determined as 8540 ng/mL, the MRT last was 6.11 h and the Tmax was found to be 4 h. In [7] (setting [10]), the AUC(0-inf) came to 96600 ng·h/mL, the half-life was 3.55 h and the Vd/F came out at 0.53 L/kg.
